Molecules are shown by their SMILES. Numbers after ± are expanded uncertainties.

The series in a line: activity coefficient (dimensionless); of the first substance listed, at infinite dilution; xn = mol fraction of the nth substance listed. As to conditions: 100 kPa, Liquid, Chromatography, x1 = 0.

Regarding `CC#N` [acetonitrile] + CC(O)C(=O)[O-].CC[N+]1(C)CCCC1, the activity coefficient by setting is: (318.15 K) 0.773 ± 0.065; (328.15 K) 0.808 ± 0.068; (338.15 K) 0.844 ± 0.07; (348.15 K) 0.88 ± 0.07; (358.15 K) 0.915 ± 0.076; (368.15 K) 0.962 ± 0.079.
For `c1ccccc1` [benzene] + CC(O)C(=O)[O-].CC[N+]1(C)CCCC1, the activity coefficient came out at 2.85 ± 0.25 (318.15 K); 2.94 ± 0.25 (328.15 K); 3.04 ± 0.26 (338.15 K); 3.14 ± 0.27 (348.15 K); 3.24 ± 0.28 (358.15 K); 3.36 ± 0.29 (368.15 K).
As for `CCCCO` [butan-1-ol] + CC(O)C(=O)[O-].CC[N+]1(C)CCCC1, the activity coefficient is 0.335 ± 0.036 (358.15 K); 0.361 ± 0.038 (368.15 K); 0.388 ± 0.039 (378.15 K); 0.421 ± 0.041 (388.15 K); 0.453 ± 0.043 (398.15 K); 0.486 ± 0.045 (408.15 K).
As to `C1CCCCCC1` [cycloheptane] + CC(O)C(=O)[O-].CC[N+]1(C)CCCC1, the activity coefficient (308.15 K) amounted to 69.7 ± 6; the activity coefficient (318.15 K) was 64.6 ± 5.6; the activity coefficient (328.15 K) stood at 60.3 ± 5.2; the activity coefficient (338.15 K) was found to be 57 ± 4.9; the activity coefficient (348.15 K) was 53.8 ± 4.7; the activity coefficient (358.15 K) is 51 ± 4.4. In addition, the activity coefficient (368.15 K) was 47.8 ± 4.1.
Take `C1CCCCC1` [cyclohexane] + CC(O)C(=O)[O-].CC[N+]1(C)CCCC1: the activity coefficient turned out to be 52.7 ± 4.6 (308.15 K); 48.6 ± 4.2 (318.15 K); 45 ± 3.9 (328.15 K); 42.6 ± 3.7 (338.15 K); 40.6 ± 3.5 (348.15 K); 38.4 ± 3.3 (358.15 K). In addition, the activity coefficient (368.15 K) was 36.3 ± 3.1.
`C1=CCCCC1` [cyclohexene] + CC(O)C(=O)[O-].CC[N+]1(C)CCCC1: the activity coefficient by setting is: (308.15 K) 22.4 ± 1.9; (318.15 K) 21.7 ± 1.9; (328.15 K) 20.7 ± 1.8; (338.15 K) 20.2 ± 1.7; (348.15 K) 19.7 ± 1.7; (358.15 K) 19.5 ± 1.7. The activity coefficient (368.15 K) came to 18.9 ± 1.6.
On to `C1CCCCCCC1` [cyclooctane] + CC(O)C(=O)[O-].CC[N+]1(C)CCCC1, for which the activity coefficient (308.15 K) was determined as 95.8 ± 8.3; the activity coefficient (318.15 K) worked out at 88.7 ± 7.7; the activity coefficient (328.15 K) is 82.1 ± 7.1; the activity coefficient (338.15 K) came to 77.2 ± 6.7; the activity coefficient (348.15 K) was found to be 72.6 ± 6.3; the activity coefficient (358.15 K) amounted to 68 ± 5.9. For the same molecule, the activity coefficient (368.15 K) was 63.9 ± 5.5.
Turning to `C1CCCC1` [cyclopentane] + CC(O)C(=O)[O-].CC[N+]1(C)CCCC1, the activity coefficient runs as follows: (308.15 K) 31.7 ± 2.7; (318.15 K) 29.7 ± 2.6; (328.15 K) 28.2 ± 2.4; (338.15 K) 26.9 ± 2.3; (348.15 K) 25.7 ± 2.2; (358.15 K) 24.7 ± 2.1. Also, the activity coefficient (368.15 K) stood at 23.5 ± 2.
Take `CCCCCCCCCC` [decane] + CC(O)C(=O)[O-].CC[N+]1(C)CCCC1: the activity coefficient came to 787 ± 68 (308.15 K); 725 ± 63 (318.15 K); 651 ± 57 (328.15 K); 597 ± 52 (338.15 K); 542 ± 47 (348.15 K); 496 ± 43 (358.15 K). For the same molecule, the activity coefficient (368.15 K) was 456 ± 40.
Take `CCOCC` [diethyl ether] + CC(O)C(=O)[O-].CC[N+]1(C)CCCC1: the activity coefficient came to 15.8 ± 1.4 (308.15 K); 15.6 ± 1.3 (318.15 K); 15.5 ± 1.3 (328.15 K); 15.1 ± 1.3 (338.15 K); 15 ± 1.3 (348.15 K); 15.1 ± 1.3 (358.15 K). Moreover, the activity coefficient (368.15 K) was determined as 14.9 ± 1.3.
Regarding `CC(C)OC(C)C` [diisopropyl ether] + CC(O)C(=O)[O-].CC[N+]1(C)CCCC1, the activity coefficient reads like this: (308.15 K) 55.3 ± 4.8; (318.15 K) 53.6 ± 4.6; (328.15 K) 52 ± 4.5; (338.15 K) 50.1 ± 4.3; (348.15 K) 48.6 ± 4.2; (358.15 K) 47.2 ± 4.1. Moreover, the activity coefficient (368.15 K) is 45.9 ± 4.
Take `CCCOCCC` [dipropyl ether] + CC(O)C(=O)[O-].CC[N+]1(C)CCCC1: the activity coefficient (308.15 K) came to 52.1 ± 4.5; the activity coefficient (318.15 K) was determined as 50.3 ± 4.4; the activity coefficient (328.15 K) came out at 48.2 ± 4.2; the activity coefficient (338.15 K) is 46.2 ± 4; the activity coefficient (348.15 K) amounted to 44.8 ± 3.9; the activity coefficient (358.15 K) came to 43.2 ± 3.7. For the same molecule, where the note is “368.15 K”, the activity coefficient was determined as 41.9 ± 3.6.
Take `CCO` [ethanol] + CC(O)C(=O)[O-].CC[N+]1(C)CCCC1: the activity coefficient worked out at 0.174 ± 0.03 (358.15 K); 0.187 ± 0.03 (368.15 K); 0.201 ± 0.031 (378.15 K); 0.219 ± 0.031 (388.15 K); 0.234 ± 0.032 (398.15 K); 0.255 ± 0.033 (408.15 K).
In the case of `CCOC(C)=O` [ethyl acetate] + CC(O)C(=O)[O-].CC[N+]1(C)CCCC1, the activity coefficient runs as follows: (318.15 K) 5.04 ± 0.43; (328.15 K) 5.14 ± 0.44; (338.15 K) 5.23 ± 0.45; (348.15 K) 5.32 ± 0.46; (358.15 K) 5.43 ± 0.47; (368.15 K) 5.56 ± 0.48. Further, the activity coefficient (378.15 K) came out at 5.66 ± 0.49.
As for `CCc1ccccc1` [ethylbenzene] + CC(O)C(=O)[O-].CC[N+]1(C)CCCC1, the activity coefficient is, setting by setting: (318.15 K) 9.27 ± 0.8; (328.15 K) 9.36 ± 0.81; (338.15 K) 9.45 ± 0.82; (348.15 K) 9.58 ± 0.83; (358.15 K) 9.68 ± 0.84; (368.15 K) 9.86 ± 0.85.
On to `CCCCCCC` [heptane] + CC(O)C(=O)[O-].CC[N+]1(C)CCCC1, for which the activity coefficient (308.15 K) turned out to be 213 ± 18; the activity coefficient (318.15 K) worked out at 196 ± 17; the activity coefficient (328.15 K) worked out at 180 ± 16; the activity coefficient (338.15 K) amounted to 167 ± 14; the activity coefficient (348.15 K) came to 154 ± 13; the activity coefficient (358.15 K) was determined as 144 ± 12. Besides, for the setting “368.15 K”, the activity coefficient is 133 ± 12.
As for `C=CCCCC` [hex-1-ene] + CC(O)C(=O)[O-].CC[N+]1(C)CCCC1, the activity coefficient runs as follows: (308.15 K) 56 ± 4.8; (318.15 K) 53.3 ± 4.6; (328.15 K) 50.9 ± 4.4; (338.15 K) 48.7 ± 4.2; (348.15 K) 46.6 ± 4; (358.15 K) 44.7 ± 3.9. The activity coefficient (368.15 K) came out at 42.9 ± 3.7.
As for `CCCCCC` [hexane] + CC(O)C(=O)[O-].CC[N+]1(C)CCCC1, the activity coefficient stood at 135 ± 12 (308.15 K); 125 ± 11 (318.15 K); 114 ± 10 (328.15 K); 107 ± 9 (338.15 K); 99.9 ± 8.7 (348.15 K); 94.6 ± 8.2 (358.15 K). Where the note is “368.15 K”, the activity coefficient came out at 88.7 ± 7.7.
Consider `CO` [methanol] + CC(O)C(=O)[O-].CC[N+]1(C)CCCC1, for which the activity coefficient is, setting by setting: (358.15 K) 0.086 ± 0.03; (368.15 K) 0.095 ± 0.03; (378.15 K) 0.105 ± 0.03; (388.15 K) 0.116 ± 0.03; (398.15 K) 0.125 ± 0.03; (408.15 K) 0.137 ± 0.029.
In the case of `CCCC(=O)OC` [methyl butanoate] + CC(O)C(=O)[O-].CC[N+]1(C)CCCC1, the activity coefficient by setting is: (318.15 K) 7.46 ± 0.64; (328.15 K) 7.56 ± 0.65; (338.15 K) 7.6 ± 0.66; (348.15 K) 7.74 ± 0.67; (358.15 K) 7.84 ± 0.68; (368.15 K) 8.01 ± 0.69. Also, the activity coefficient (378.15 K) is 8.08 ± 0.7.
Consider `COC(C)=O` [methyl ethanoate] + CC(O)C(=O)[O-].CC[N+]1(C)CCCC1, for which the activity coefficient is, setting by setting: (318.15 K) 2.95 ± 0.25; (328.15 K) 3.03 ± 0.26; (338.15 K) 3.1 ± 0.27; (348.15 K) 3.18 ± 0.27; (358.15 K) 3.25 ± 0.28; (368.15 K) 3.37 ± 0.29. Further, where the note is “378.15 K”, the activity coefficient is 3.45 ± 0.3.
Regarding `CCC(=O)OC` [methyl propanoate] + CC(O)C(=O)[O-].CC[N+]1(C)CCCC1, the activity coefficient reads like this: (318.15 K) 4.71 ± 0.41; (328.15 K) 4.79 ± 0.41; (338.15 K) 4.88 ± 0.42; (348.15 K) 4.97 ± 0.43; (358.15 K) 5.06 ± 0.44; (368.15 K) 5.22 ± 0.45. Further, the activity coefficient (378.15 K) was 5.32 ± 0.46.
Consider `CC1CCCCC1` [methylcyclohexane] + CC(O)C(=O)[O-].CC[N+]1(C)CCCC1, for which the activity coefficient was 87.4 ± 7.6 (308.15 K); 80.7 ± 7 (318.15 K); 75 ± 6.5 (328.15 K); 69.7 ± 6 (338.15 K); 65.7 ± 5.7 (348.15 K); 61.8 ± 5.3 (358.15 K). Also, the activity coefficient (368.15 K) was found to be 57.8 ± 5.
In the case of `CCCCCCCCC` [nonane] + CC(O)C(=O)[O-].CC[N+]1(C)CCCC1, the activity coefficient runs as follows: (308.15 K) 518 ± 45; (318.15 K) 474 ± 41; (328.15 K) 423 ± 37; (338.15 K) 389 ± 34; (348.15 K) 358 ± 31; (358.15 K) 326 ± 28. The activity coefficient (368.15 K) amounted to 297 ± 26.
As to `C=CCCCCCC` [oct-1-ene] + CC(O)C(=O)[O-].CC[N+]1(C)CCCC1, the activity coefficient runs as follows: (308.15 K) 145 ± 13; (318.15 K) 136 ± 12; (328.15 K) 127 ± 11; (338.15 K) 120 ± 10; (348.15 K) 114 ± 10; (358.15 K) 108 ± 9. Also, the activity coefficient (368.15 K) was 103 ± 9.

Source of the values: the NIST ThermoML archive (doi:10.1016/j.jct.2015.05.014).
